Paper PMC3429506, “Screening for Novel LRRK2 Inhibitors Using a High-Throughput TR-FRET Cellular Assay for LRRK2 Ser935 Phosphorylation” (PLoS ONE, 2012)

Assays:
LRRK2 G2019S [1] = target: T1, LRRK2 G2019S (Homo sapiens, UniProt Q5S007, G2019S); assay: TR-FRET cellular assay for LRRK2 Ser935 phosphorylation, U-2 OS cells, BacMam LRRK2-GFP G2019S; assay type: cell-based; design: This high-throughput assay utilizes cells expressing full-length human LRRK2 with a C-terminal GFP tag (LRRK2-GFP); host or cells: U-2 OS, SH-SY5Y, HEK293T cells or human neural stem cells transduced with BacMam
T1 sequence (Q5S007 whole entry G2019S): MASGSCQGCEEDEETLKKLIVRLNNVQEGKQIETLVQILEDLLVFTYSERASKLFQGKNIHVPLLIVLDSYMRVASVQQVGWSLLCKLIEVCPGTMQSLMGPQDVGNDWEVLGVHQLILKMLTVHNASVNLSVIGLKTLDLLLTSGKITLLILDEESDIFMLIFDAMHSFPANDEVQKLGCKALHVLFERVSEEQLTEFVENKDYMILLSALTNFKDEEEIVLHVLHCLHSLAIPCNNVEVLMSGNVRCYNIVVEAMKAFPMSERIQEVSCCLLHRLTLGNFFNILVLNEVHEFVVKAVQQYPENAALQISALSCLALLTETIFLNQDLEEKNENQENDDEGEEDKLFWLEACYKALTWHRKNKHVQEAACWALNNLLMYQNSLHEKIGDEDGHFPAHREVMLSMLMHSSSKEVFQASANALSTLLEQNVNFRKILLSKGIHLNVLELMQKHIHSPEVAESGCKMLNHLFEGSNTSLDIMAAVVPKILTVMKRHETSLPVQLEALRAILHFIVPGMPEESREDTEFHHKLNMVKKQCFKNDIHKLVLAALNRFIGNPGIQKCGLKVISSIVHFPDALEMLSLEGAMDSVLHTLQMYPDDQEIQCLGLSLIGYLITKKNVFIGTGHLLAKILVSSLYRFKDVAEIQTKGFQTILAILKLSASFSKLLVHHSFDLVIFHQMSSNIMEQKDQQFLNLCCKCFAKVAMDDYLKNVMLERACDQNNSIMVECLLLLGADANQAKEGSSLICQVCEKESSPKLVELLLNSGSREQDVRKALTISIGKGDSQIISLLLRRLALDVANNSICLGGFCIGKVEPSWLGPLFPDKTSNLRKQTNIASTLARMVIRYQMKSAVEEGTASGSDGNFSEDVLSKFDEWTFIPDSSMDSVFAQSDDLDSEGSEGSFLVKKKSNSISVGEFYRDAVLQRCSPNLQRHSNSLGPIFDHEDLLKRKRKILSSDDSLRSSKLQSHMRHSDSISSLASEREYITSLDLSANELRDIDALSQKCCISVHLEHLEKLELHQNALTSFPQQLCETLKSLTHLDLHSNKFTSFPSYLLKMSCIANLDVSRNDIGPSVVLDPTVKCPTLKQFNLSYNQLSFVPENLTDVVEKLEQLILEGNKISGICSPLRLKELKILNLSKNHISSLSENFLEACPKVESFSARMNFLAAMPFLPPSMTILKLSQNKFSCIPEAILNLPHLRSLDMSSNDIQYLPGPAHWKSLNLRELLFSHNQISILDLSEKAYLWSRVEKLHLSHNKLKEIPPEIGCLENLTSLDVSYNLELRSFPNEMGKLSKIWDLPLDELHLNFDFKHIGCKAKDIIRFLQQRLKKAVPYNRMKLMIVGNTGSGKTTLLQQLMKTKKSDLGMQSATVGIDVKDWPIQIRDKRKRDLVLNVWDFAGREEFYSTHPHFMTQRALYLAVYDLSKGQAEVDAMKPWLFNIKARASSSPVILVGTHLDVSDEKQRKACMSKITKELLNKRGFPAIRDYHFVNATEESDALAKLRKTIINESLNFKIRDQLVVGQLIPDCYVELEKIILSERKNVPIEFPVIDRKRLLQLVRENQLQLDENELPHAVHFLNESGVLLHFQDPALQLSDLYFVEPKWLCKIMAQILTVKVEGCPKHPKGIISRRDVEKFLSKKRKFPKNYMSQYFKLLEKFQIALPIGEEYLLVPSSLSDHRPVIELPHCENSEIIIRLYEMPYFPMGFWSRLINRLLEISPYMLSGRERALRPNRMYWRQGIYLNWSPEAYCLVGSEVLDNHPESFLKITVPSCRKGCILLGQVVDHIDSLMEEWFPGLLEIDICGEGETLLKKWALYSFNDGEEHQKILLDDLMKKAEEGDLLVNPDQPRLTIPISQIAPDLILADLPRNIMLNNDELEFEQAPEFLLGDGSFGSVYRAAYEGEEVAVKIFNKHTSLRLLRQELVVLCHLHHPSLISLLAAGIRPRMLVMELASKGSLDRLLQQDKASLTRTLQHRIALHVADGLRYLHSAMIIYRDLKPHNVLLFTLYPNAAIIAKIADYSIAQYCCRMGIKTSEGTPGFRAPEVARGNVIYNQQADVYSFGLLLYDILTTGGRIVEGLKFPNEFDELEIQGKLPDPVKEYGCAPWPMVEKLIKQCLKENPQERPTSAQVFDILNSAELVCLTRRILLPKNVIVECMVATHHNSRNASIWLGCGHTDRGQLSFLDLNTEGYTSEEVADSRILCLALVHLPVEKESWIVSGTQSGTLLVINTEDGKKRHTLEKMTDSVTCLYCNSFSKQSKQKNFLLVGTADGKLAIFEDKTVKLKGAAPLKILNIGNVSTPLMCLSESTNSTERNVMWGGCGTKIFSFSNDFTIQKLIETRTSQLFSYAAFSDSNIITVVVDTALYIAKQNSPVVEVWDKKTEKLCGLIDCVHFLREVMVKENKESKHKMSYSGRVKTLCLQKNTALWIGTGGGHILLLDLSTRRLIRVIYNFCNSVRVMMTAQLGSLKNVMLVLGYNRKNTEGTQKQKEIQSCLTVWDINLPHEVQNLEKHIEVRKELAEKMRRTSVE
Description: (§1) U-2 OS cells are maintained in growth medium (McCoy’s 5A supplemented with 10% dialyzed FBS (dFBS), 10 mM HEPES, 0.1 mM NEAA, 1 mM Sodium Pyruvate, and 100 U/mL Penicillin/100 µg/mL Streptomycin). HEK293T cells are maintained in DMEM with 10% dFBS, 10 mM HEPES, 0.1 mM NEAA and 100 U/mL Penicillin/100 µg/mL Streptomycin. SH-SY5Y cells are maintained in DMEM/F-12 medium supplemented with 10% dFBS and 100 U/mL Penicillin/100 µg/mL Streptomycin. […] GIBCO® human neural stem cells (hNSCs) were propagated as an adherent culture in StemPro® NSC SFM according to the manufacturer’s recommended protocol (Life Technologies). For BacMam transduction of U-2 OS and HEK293T, cells were harvested, mixed with various amounts of BacMam LRRK2-GFP reagent (v/v) and plated onto 6-well plates. […] Cells were assayed in 384-well format (∼20,000 cells/well) 48 hours post-transduction as above.
(§2) Transduced cells in the 384-well assay plate were incubated with indicated inhibitors (5X, 5 µL/well) for 60 to 90 minutes. During this time, 6 X lysis buffer (Life Technologies) was supplemented with 30 nM Tb-labeled anti-LRRK2 pSer935 antibody and both protease and phosphatase inhibitor cocktails (Sigma). The complete 6 X lysis buffer was added to each well (5 µL/well) and the plates were incubated at room temperature in the dark for 2 hours. […] A sigmoidal dose-response equation with varying slope was used to fit the data and generate IC50 values. Z′-factor values were calculated as: Z′-factor = 1 - [(3 × stdevno virus +3 × stdevmaxvirus)/(avgmaxvirus – avgno-virus)]. The IC50 values reported in Table 1 are the averaged numbers from three independent experiments.

LRRK2 wild-type = LRRK2 wild-type (Homo sapiens, UniProt Q5S007); assay: TR-FRET cellular assay for LRRK2 Ser935 phosphorylation, HEK293T cells, BacMam LRRK2-GFP wild-type; design: This high-throughput assay utilizes cells expressing full-length human LRRK2 with a C-terminal GFP tag (LRRK2-GFP); host or cells: HEK293T cells transduced with BacMam; conditions: WT, +/- SD, three independent experiments, * = partial inhibition, read-out: IC50, TR-FRET cell-based assay for Ser935 phosphorylation of LRRK2
Chain of LRRK2 wild-type (Q5S007 whole entry): as the sequence (Q5S007 whole entry G2019S) above, with S2019G counted along it
Description: as §1, §2

LRRK2 G2019S [2] = target: T1, LRRK2 G2019S; assay: TR-FRET cellular assay for LRRK2 Ser935 phosphorylation, SH-SY5Y cells, BacMam LRRK2-GFP G2019S (incl. Tocriscreen Mini library screen and follow-up); assay type: cell-based; design: This high-throughput assay utilizes cells expressing full-length human LRRK2 with a C-terminal GFP tag (LRRK2-GFP); host or cells: SH-SY5Y cells transduced with BacMam
LRRK2 G2019S [3] = target: T1, LRRK2 G2019S; assay: In vitro biochemical LRRK2 TR-FRET activity assay; conditions: LRRK2 G2019S, ATP 134 µM (Km,app), LRRKtide substrate, three independent experiments; read-out: Biochemical LRRK2 assay IC50 +/- SD

## COc1cc(C(=O)N2CCC(N3CCN(C)CC3)CC2)ccc1Nc1ncc2c(n1)N(C)c1ccccc1C(=O)N2C [LRRK2-IN-1]
LRRK2 G2019S [1]; 20% BacMam G2019S, 90 min, Figure 2B, read-out: IC50, inhibition of TR-FRET signal (Ser935 phosphorylation)
  IC50: 30 nM
LRRK2 G2019S [1]; G2019S, +/- SD, three independent experiments, * = partial inhibition, read-out: IC50, TR-FRET cell-based assay for Ser935 phosphorylation of LRRK2
  IC50: 50 nM
LRRK2 wild-type
  IC50: 120 nM
LRRK2 G2019S [2]; SH-SY5Y, 25% BacMam G2019S, 90 min, Figure 3C, read-out: IC50, inhibition of TR-FRET signal (Ser935 phosphorylation)
  IC50: 40 nM
LRRK2 G2019S [2]; SH-SY5Y, G2019S, +/- SD, three independent experiments, * = partial inhibition, read-out: IC50, TR-FRET cell-based assay for Ser935 phosphorylation of LRRK2
  IC50: 60 nM
LRRK2 G2019S [2]; SH-SY5Y, LRRK2-IN-1 positive control used at 10 µM, SH-SY5Y G2019S, read-out: %Inhibition Initial screen (positive control)
  inhibition at 10 µM: 100%
LRRK2 G2019S [2]; cryopreserved pretransduced SH-SY5Y cells, 25% BacMam G2019S, 90 min, Figure S3, read-out: IC50 using cryopreserved cells
  IC50: ~40 nM
LRRK2 G2019S [2]; dose-response follow-up, SH-SY5Y G2019S, three independent experiments, read-out: Cellular TR-FRET Assay IC50 +/-SD
  IC50: 70 nM
LRRK2 G2019S [3]
  IC50: 10 nM
